Measurements published in article PMC9739180, “Discovery of a Flavonoid FM04 as a Potent Inhibitor to Reverse P-Glycoprotein-Mediated Drug Resistance in Xenografts and Improve Oral Bioavailability of Paclitaxel” (International Journal of Molecular Sciences, 2022).

How the values were obtained:
[1] = Cytotoxicity assay (MTS, 3 days), LCC6; type: cell-based; conditions: human, LCC6 cells
Procedure: To each well of 96-well plate, 10,000 cells of LCC6, LCC6MDR or L929 were incubated with different concentrations of FM04 (0, 0.4, 1.2, 3.7, 11, 33 and 100 μM). The final volume in each well of 96-well plate was 100 μL and the plate was incubated for 3 days at 37 °C. The cell viability was determined using MTS assay as reported previously.

[2] = In vivo monitoring of FD18 and its metabolites in plasma after I.V. FD18; parameters: species or system SD rats; conditions: after FD18 5 mg/kg I.V.
Procedure: Figure 3 Proposed metabolism pathway of FD18 and its metabolites formed in vivo. (A) metabolism study of FD18 was conducted on human liver microsomes (HLM) and rat liver microsomes (RLM) in vitro. Chemical structure of the 3 metabolites was predicted by LC/QTOF-MS/MS and confirmed by the synthetic compounds (Figure 2E–J). The pathways for biotransformation of FD18 into FM04 was proposed. (B) plasma concentration profile of FD18 and the in vivo formation of metabolites M1, M2 and M3. After I.V. injection of FD18 (5 mg/kg) into […], plasma was collected at 10, 30, 60, 120, 240, 420 and 600 min, respectively. The concentration of FD18 at each time point was determined by UPLC-MS/MS. Its plasma concentration was further quantified with peak area ratio of FD18 against D7-18. […] In vivo formation of metabolites M1, M2 and M3 were monitored and quantified by UPLC-MS/MS with corresponding calibration curve of 14a, FM04 and FM327. Pharmacokinetic parameter AUC was calculated by the pharmacokinetic software-Summit® PK solutions 2.0 (Summit Research Service, Ashland, Wilmington, DE, USA).
FD18 stock solution was freshly prepared in 33% Cremophor EL, 33% ethanol and 33% saline at a concentration of 9.5 mg/mL. FD18 stock solution was then diluted with saline to form a 4 mg/mL working solution for animal injection. SD rats were intravenously (I.V.) administered with FD18 at 5 mg/kg (n = 3). Blood samples (approx. 300 μL) were taken via jugular vein at 10, 30, 60, 120, 240 and 420 min post-administration. Blood samples were centrifuged at 16,100× g for 10 min to obtain plasma. Plasma samples (50 µL) were spiked with 15 μL of internal standard (IS) (D7-NBn, 10 μg/mL). Two hundred microliter of methanol was added for protein precipitation. Samples were centrifuged at 16,100× g for 10 min prior to filtering by 0.22 μm syringe filter for UPLC-MSMS analysis.
The UPLC-MS/MS system consists of an Agilent 1260 infinity UPLC interfaced with a triple quadrupole mass spectrometer (Agilent 6460) equipped with an electrospray ionization source in positive mode. Zorbax Eclipse XDB-C8 (4.6 × 150 mm, 5 µM) was used for separation. The mobile phase for chromatographic separation consisted of methanol + 0.1% formic acid (solvent B) and Milli-Q water + 0.1% formic acid (solvent A) with gradient elution of 30% solvent B to 100% solvent B in 5 min. The elution condition was allowed for equilibrium from the 7th min onward. The analysis time for each injection was 13 min. The flow rate was 0.4 mL/min. The synthetic compound D7-NBn, the deuterated benzyl form of FD18, was used as the internal standard (IS) for the quantification of the three metabolites. Multiple reaction monitoring (MRM) was set to monitor the transitions of D7-NBn [M+H]^+, FD18 [M+H]^+, M1 [M+H]^+, M2 [M+H]^+ and M3 [M+H]^+ at 731.01 > 98.1 m/z, 724.01 > 91.1 m/z, 634.01 > 114 m/z, 416.01 > 91.1 m/z and 327.01 > 239 m/z, respectively. The coefficient of determination (R^2) for 14a, FM04 and FM327 were above 0.99. The dynamic range for the metabolites in the current setting is 78 ng/mL to 2.44 ng/mL.

[3] = target: T1, P-gp (Homo sapiens, UniProt P08183); assay: P-gp-ATPase activity (P-gp-Glo assay); type: biochemical; parameters: purchased Promega
T1 sequence (P08183 whole entry): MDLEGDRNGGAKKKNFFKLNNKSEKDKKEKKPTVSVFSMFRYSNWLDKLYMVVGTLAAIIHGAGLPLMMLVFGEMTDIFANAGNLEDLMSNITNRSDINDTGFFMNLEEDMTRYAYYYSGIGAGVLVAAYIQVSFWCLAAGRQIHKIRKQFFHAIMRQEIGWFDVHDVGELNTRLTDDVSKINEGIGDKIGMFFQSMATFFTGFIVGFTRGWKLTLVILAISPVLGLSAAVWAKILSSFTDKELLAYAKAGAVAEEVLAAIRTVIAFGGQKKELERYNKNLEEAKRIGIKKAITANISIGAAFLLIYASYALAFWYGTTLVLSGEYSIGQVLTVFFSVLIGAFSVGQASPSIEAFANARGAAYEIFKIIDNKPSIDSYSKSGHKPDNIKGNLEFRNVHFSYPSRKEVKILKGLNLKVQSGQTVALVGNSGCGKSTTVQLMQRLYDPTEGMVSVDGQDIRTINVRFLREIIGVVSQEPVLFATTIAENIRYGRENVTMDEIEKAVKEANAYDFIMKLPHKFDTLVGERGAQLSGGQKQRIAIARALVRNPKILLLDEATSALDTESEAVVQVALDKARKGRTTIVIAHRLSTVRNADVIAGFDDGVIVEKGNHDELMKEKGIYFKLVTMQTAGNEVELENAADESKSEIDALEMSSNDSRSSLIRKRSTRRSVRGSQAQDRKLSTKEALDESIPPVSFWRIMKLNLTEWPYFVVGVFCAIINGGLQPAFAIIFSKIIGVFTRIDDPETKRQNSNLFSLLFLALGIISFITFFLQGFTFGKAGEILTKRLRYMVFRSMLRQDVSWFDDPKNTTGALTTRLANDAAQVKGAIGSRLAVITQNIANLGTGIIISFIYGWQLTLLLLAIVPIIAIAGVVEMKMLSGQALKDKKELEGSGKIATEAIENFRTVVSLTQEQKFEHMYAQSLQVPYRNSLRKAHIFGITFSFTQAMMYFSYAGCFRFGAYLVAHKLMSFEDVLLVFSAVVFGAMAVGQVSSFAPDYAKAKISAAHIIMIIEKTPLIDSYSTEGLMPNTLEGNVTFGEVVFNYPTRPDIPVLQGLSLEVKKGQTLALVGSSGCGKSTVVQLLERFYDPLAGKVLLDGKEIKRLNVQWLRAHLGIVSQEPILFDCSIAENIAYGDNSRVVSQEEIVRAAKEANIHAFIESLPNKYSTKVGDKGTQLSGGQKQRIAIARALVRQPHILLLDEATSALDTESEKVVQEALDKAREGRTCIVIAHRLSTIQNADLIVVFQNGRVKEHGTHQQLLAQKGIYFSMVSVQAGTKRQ
Procedure: (§1) N = 2–3 independent experiments. […] After incubation, the cells were lysed and spun down. […] N = 2–6 independent experiments. […] A 1% DMSO was a solvent control. […] N = 2–3 independent experiments.
P-gp-ATPase activity was measured by a P-gp-Glo assay system (Promega) with a human P-gp membrane, as reported previously. […] The reaction was initiated by the addition of MgATP and incubated at 37 °C for 1 h. After adding the ATP detection reagent, the sample was incubated at room temperature for 20 min before measuring the remaining ATP signal of luminescence by a Clariostar microplate reader (BMG Labtech). Vanadate-inhibitable P-gp ATPase activity was determined by calculating the luminescence signal in the samples with or without sodium vanadate.

[4] = target: T1, P-gp; assay: Intracellular FM04 level in LCC6MDR and LCC6 cells (P-gp transport substrate test); type: cell-based; parameters: expressed in transfected cells; host or cells: MDA435/LCC6MDR (human melanoma); conditions: 1-10 µM, LCC6MDR vs LCC6
Procedure: as §1
P-gp is a transporter with broad substrate specificity. To explore whether FM04 can be pumped by P-gp and work as a competitive inhibitor to prevent the drug substrate from binding, the following experiment was performed. The intracellular level of FM04 was compared in P-gp overexpressing LCC6MDR cells and non-P-gp parental LCC6 cells after its treatment.

[5] = system: human melanoma MDA435/LCC6 xenograft; assay: In vivo efficacy of oral co-administration in human melanoma MDA435/LCC6 xenograft; conditions: PTX 12 mg/kg I.V., (q1d × 4) × 2 rounds

Row | AUC(0-t) ([2]; Sprague-Dawley, rat, iv) [ng·h/mL] | Cmax ([2]; Sprague-Dawley, rat, iv) [ng/mL] | Tmax ([2]; Sprague-Dawley, rat, iv) [h] | Normalized AUC (systemic exposure relative to FD18) ([2]; listed as M2) [%] | P-gp ATPase activity, fold of basal ([3]; 3 μM) [fold] | P-gp ATPase activity, fold of basal ([3]; 100 μM) [fold] | Transport substrate of P-gp [4] | Structure (SMILES) | IC50 at 3 days [1] [µM] | Tumor inhibition on day 31 (%) [5] [%]
1 | 44.5 | 11 | 1 | 7 | 1.5 | 3.3 | not a transport substrate of P-gp | O=c1cc(-c2ccc(OCCOCCNCc3ccccc3)cc2)oc2ccccc12 [FM04, 2-(4-(2-(2-(benzylamino)ethoxy)ethoxy)phenyl)-4H-chromen-4-one] | 10.3 ± 0.2 | 
2 |  |  |  |  |  |  |  | CC(=O)O[C@H]1C(=O)[C@@]2(C)[C@H]([C@H](OC(=O)c3ccccc3)[C@]3(O)C[C@H](OC(=O)[C@H](O)[C@@H](NC(=O)c4ccccc4)c4ccccc4)C(C)=C1C3(C)C)[C@]1(OC(C)=O)CO[C@@H]1C[C@@H]2O [PTX, paclitaxel] |  | 97
